# Article PMC12057359, “Inhibitory effect of copper chelators on the budding in Candida albicans” (Antimicrobial Agents and Chemotherapy, 2025)
# What was measured:
# S. aureus 209P = assay: iHOPE antimicrobial microdilution assay; assay type: cell-based, Staphylococcus aureus; conditions: Staphylococcus aureus, 209P, read-out: IC50 against S. aureus 209P
# C. albicans JCM1542 [1] = assay: Reactive oxygen species (ROS) measurement (DCFH-DA); assay type: cell-based, Candida albicans; conditions: 60 min, dose range 0.010–0.3 µM
# Procedure: (§1) Intracellular ATP measurement
# (§2) Intracellular ATP levels were examined using the protocol outlined in a previous study (27). C. glabrata JCM3761 was precultured overnight in YPD medium [1% yeast extract (Thermo Fisher Scientific), 2% peptone (NIHON PHARMACEUTICAL, Osaka, Japan), and 2% D-glucose]. A 200-µL inoculum suspension containing 0.1% of a 0.5 McFarland standard suspension was prepared and seeded into a 96-well plate. […] The luminescence was recorded using a Varioskan LUX Multimode Microplate Reader.
# (§3) Reactive oxygen species (ROS) measurement
# (§4) ROS levels were examined using the method described in a previous paper (27). The overnight preculture of C. albicans JCM1542 was washed and resuspended in 5 mL of PBS buffer. 2’,7’- dichlorodihydrofluorescein diacetate (DCFH-DA; Cayman Chemical, MI, US) was added at a concentration of 50 µM. After incubation at 28 °C for 30 min, the fungi were washed three times with PBS buffer to remove the residual extracellular dye and seeded at a density of 1×10^6 cells/well in 50 µL of PBS, followed by the sample addition. After 60 min of incubation, the fluorescence intensity (excitation wavelength/emission wavelength = 485/535 nm) was measured using Varioskan LUX Multimode Microplate Reader.
# C. auris Ci6684 = assay: iHOPE antimicrobial microdilution assay (turbidity OD600); assay type: cell-based, Candida auris; conditions: Candidozyma auris, CI6684, 24 h, read-out: IC50 against C. auris Ci6684
# P. oryzae Kita-1 = assay: microbe, parasite or virus in culture; assay type: cell-based, Pyricularia oryzae; conditions: Pyricularia oryzae, KITA1, read-out: IC50 against P. oryzae Kita-1
# C. albicans JCM1542 [2] = assay type: cell-based, Candida albicans
# C. glabrata JCM3761 [3] = assay: Intracellular ATP measurement (BacTiter-Glo); assay type: cell-based, Candida glabrata; conditions: C. glabrata JCM3761, 6 h, dose range 0.010–0.3 µM
# Procedure: as §1, §2, §3, §4
# A. fumigatus Af293 = assay: iHOPE antimicrobial microdilution assay; assay type: cell-based, Aspergillus fumigatus; conditions: Aspergillus fumigatus, AF293, read-out: IC50 against A. fumigatus Af293
# C. albicans JCM1542 [4] = assay: iHOPE antimicrobial microdilution assay (turbidity OD600); assay type: cell-based, Candida albicans
# C. auris VPCI673 = assay: as above; assay type: cell-based, Candida auris; conditions: Candidozyma auris, VPCI673, 24 h, read-out: IC50 against C. auris VPCI673
# C. albicans IFO1601 = test system: C. albicans IFO1601; design: method as in earlier work; conditions: cited from earlier work
# C. tropicalis JCM1541 = assay: iHOPE antimicrobial microdilution assay (turbidity OD600); assay type: cell-based; conditions: Candida tropicalis, JCM1541, 24 h, read-out: IC50 against C. tropicalis JCM1541
# [5] = iHOPE in vitro cytotoxicity assessment (Cell Count Reagent SF); assay type: cell-based, human; conditions: human; SD in parentheses, n = 3; read-out: IC50 against HL-60 RCB0041 (cytotoxicity)
# Procedure: (§5) The method for in vitro cytotoxicity assessment using Cell Count Reagent SF (Nacalai Tesque) has been described previously ([15]). […] Test compounds were added to the culture medium, and then the plates were incubated at 28°C for 24 h.
# HL-60 RCB0041 = assay: as above; assay type: cell-based, human; conditions: up to / at 30 µM
# Procedure: as §5
# E. coli HO-141 = assay: iHOPE antimicrobial microdilution assay; assay type: cell-based, Escherichia coli; conditions: Escherichia coli, HO141, read-out: IC50 against E. coli HO-141
# C. glabrata JCM3761 [6] = assay: iHOPE antimicrobial microdilution assay (turbidity OD600); assay type: cell-based, Candida glabrata; conditions: Nakaseomyces glabratus, JCM3761, 24 h, read-out: IC50 against C. glabrata JCM3761
structure (smiles),measurement,setting,value
[C-]#[N+][C@H](C)CC(=O)NC[C@@H]1CC[C@H](NC(=O)C[C@@H](C)[N+]#[C-])C(O)O1 (stereo partly shown) [SF2768],IC50,S. aureus 209P,500 nM
same,intracellular level of reactive oxygen species (ROS),C. albicans JCM1542 [1],did not alter the amount
same,IC50,C. auris Ci6684,20 nM
same,IC50,P. oryzae Kita-1,> 30000 nM
same,effect on farnesol-induced yeast growth of C. albicans,C. albicans JCM1542 [2],clearly inhibited this effect
same,morphological change induced in C. albicans,C. albicans JCM1542 [2],"few branching or lateral yeasts were observed, and only minimal hyphal growth was observed"
same,concentration at which the hyphal form of C. albicans was predominant,C. albicans JCM1542 [2]; C. albicans JCM1542,≥ 0.030 µM
same,intracellular level of ATP,C. glabrata JCM3761 [3],did not alter the amount
same,IC50,A. fumigatus Af293,120 nM
same,"effect of excessive amounts of other metal ions (iron, zinc, manganese, magnesium) on the activity","C. albicans JCM1542 [4]; 0.03 µM SF2768, metal chlorides, 24 h",did not affect the activity
same,IC50,"C. albicans JCM1542 [4]; Candida albicans, JCM1542, 24 h, read-out: IC50 against C. albicans JCM1542",10 nM
same,selectivity index,C. albicans JCM1542 [4]; HL-60 cytotoxicity versus C. albicans IC50,"> 3,000"
same,IC50,C. auris VPCI673,49 nM
same,zone of inhibition against C. albicans IFO1601,C. albicans IFO1601,faint zone of inhibition
same,IC50,C. tropicalis JCM1541,13 nM
same,IC50,[5],> 30000 nM
same,cytotoxicity to HL-60 cells (in words),HL-60 RCB0041,without any cytotoxicity
same,IC50,E. coli HO-141,> 30000 nM
same,IC50,C. glabrata JCM3761 [6],5.4 nM
